Reference: US12157730B2, “Heteroaryl derivative, method for producing same, and pharmaceutical composition comprising same as effective component” (VORONOI INC., priority 2019, dated 2024)

Target: T1, Ba/F3 cell EGFR Exon20 ins NPH (Homo sapiens, UniProt P00533, INS773NPH)
T1 construct: expressed in transfected cells; host or cells: Ba/F3
Test: Ba/F3 cell proliferation suppression, EGFR Exon20 ins NPH
Assay type: cell-based
Details: GI50 class; Ba/F3 cell line with NPH inserted at Exon20 of EGFR; 72 hours
In short: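 Cells were seeded 24 h before dosing and then treated for 72 hours with compound at final concentrations of 0.3 nM to 50 um. Live cells were measured by CellTiter-Glo luminescence, and GI50 values were derived from growth ratio relative to control across three repeats.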

| Ba/F3 (NPH) Activity | Structure (SMILES) |
| --- | --- |
| B (50 nM ≤ GI50 < 500 nM) | C=CC(=O)Nc1cc(Nc2cc(N3OCC[C@@H]3c3ccc(C)nc3)ncn2)c(OC)cc1N1CCN(C2CCCC2)CC1 [Example 225, N-(2-(4-cyclopentylpiperazine-1-yl)-4-methoxy-5-((6-((R)-3-(6-methylpyridine-3-yl)isoxazolidine-2-yl)pyrimidine-4-yl)amino)phenyl)acrylamide] |
| A (GI50 < 50 nM) | C=CC(=O)Nc1cc(Nc2cc(N3OCC[C@@H]3c3ccc(Cl)cc3)ncn2)c(OC)cc1N1CCC(N2CC[C@H](N(C)C)C2)CC1 [compound 784, N-(5-((6-((R)-3-(4-chlorophenyl)isoxazolidine-2-yl)pyrimidine-4-yl)amino)-2-(4-((S)-3-(dimethylamino)pyrolidine-1-yl)piperidine-1-yl)-4-methoxyphenyl) acrylamide] |
| A (GI50 < 50 nM) | C=CCN1CCN(C2CCN(c3cc(OC)c(Nc4cc(N5OCC[C@@H]5c5ccc(Cl)cc5F)ncn4)cc3NC(=O)C=C)CC2)CC1 [Example 211, N-(2-(4-(4-allylpiperazine-1-yl)piperidine-1-yl)-5-((6-((R)-3-(4-chloro-2-fluorophenyl)isoxazolidine-2-yl)pyrimidine-4-yl)amino)-4-methoxyphenyl) acrylamide] |
| C (500 nM ≤ GI50 < 5000 nM) | C=CC(=O)Nc1cc(Nc2cc(N3OCC[C@H]3c3c(F)cccc3F)ncn2)c(OC)cc1N1CCC(N2CCC(N(C)C)CC2)CC1 [compound 369, N-(5-((6-((S)-3-(2,6-difluorophenyl)isoxazolidine-2-yl)pyrimidine-4-yl)amino)-2-(4-(dimethylamino)-[1,4'-bipiperidine]-1'-yl)-4-methoxyphenyl) acrylamide] |
| A (GI50 < 50 nM) | C=CC(=O)Nc1cc(Nc2cc(N3OCC[C@@H]3c3cccc(F)c3F)ncn2)c(OC)cc1N1CCC(N2CCN(C(C)=O)CC2)CC1 [compound 339, N-(2-(4-(4-acetylpiperazine-1-yl)piperidine-1-yl)-5-((6-((R)-3-(2,3-difluorophenyl)isoxazolidine-2-yl)pyrimidine-4-yl)amino)-4-methoxyphenyl) acrylamide] |
| A (GI50 < 50 nM) | C=CC(=O)Nc1cc(Nc2cc(N3OCC[C@@H]3c3ccc(F)cc3F)ncn2)c(OC)cc1N1CCC(N2CCC(N3CCOCC3)CC2)CC1 [compound 426, N-(5-((6-((R)-3-(2,4-difluorophenyl)isoxazolidine-2-yl)pyrimidine-4-yl)amino)-4-methoxy-2-(4-morpholino-[1,4'-bipiperidine]-1'-yl)phenyl)acrylamide] |
| A (GI50 < 50 nM) | C=CC(=O)Nc1cc(Nc2cc(N3OCC[C@@H]3c3cc(F)ccc3F)ncn2)c(OC)cc1N1CCC(N2CCOCC2)CC1 [compound 766, N-(5-((6-((R)-3-(2,5-difluorophenyl)isoxazolidine-2-yl)pyrimidine-4-yl)amino)-4-methoxy-2-(4-morpholinopiperidine-1-yl)phenyl)acrylamide] |
| B (50 nM ≤ GI50 < 500 nM) | C=CC(=O)Nc1cc(Nc2cc(N3OCC[C@@H]3c3ccc4ccccc4c3)ncn2)c(OC)cc1N1CCC(N2CCN(C3CC3)CC2)CC1 [Example 151, N-(2-(4-(4-cyclopropylpiperazine-1-yl)piperidine-1-yl)-4-methoxy-5-((6-((R)-3-(naphthalene-2-yl)isoxazolidine-2-yl)pyrimidine-4-yl)amino)phenyl)acrylamide] |

Further lines, the molecule ahead of its results:

| Structure (SMILES) | Ba/F3 (NPH) Activity |
| --- | --- |
| C=CC(=O)Nc1cc(Nc2cc(N3OCC[C@@H]3c3ccc(F)cc3F)ncn2)c(OC)cc1N(C)CCN(C)C [compound 350, N-(5-((6-((R)-3-(2,4-difluorophenyl)isoxazolidine-2-yl)pyrimidine-4-yl)amino)-2-((2-(dimethylamino)ethyl)(methyl)amino)-4-methoxyphenyl) acrylamide] | A (GI50 < 50 nM) |
| C=CC(=O)Nc1cc(Nc2cc(N3OCC[C@@H]3Cc3cccc(Cl)c3Cl)ncn2)c(OC)cc1N1CCC(N2CCN(C3CC3)[C@H](C)C2)CC1 [compound 980, N-(2-(4-((R)-4-cyclopropyl-3-methylpiperazine-1-yl)piperidine-1-yl)-5-((6-((S)-3-(2,3-dichlorobenzyl)isoxazolidine-2-yl)pyrimidine-4-yl)amino)-4-methoxyphenyl) acrylamide] | A (GI50 < 50 nM) |
| C=CC(=O)Nc1cc(Nc2cc(N3OCC[C@@H]3c3cc(F)cc(F)c3)ncn2)c(OC)cc1N1CC[C@H](N2CCOCC2)C1 [Example 272, N-(5-((6-((R)-3-(3,5-difluorophenyl)isoxazolidine-2-yl)pyrimidine-4-yl)amino)-4-methoxy-2-((S)-3-morpholinopyrolidine-1-yl)phenyl)acrylamide] | B (50 nM ≤ GI50 < 500 nM) |
| C=CC(=O)Nc1cc(Nc2cc(N3OCC[C@]3(C)c3ccccc3)ncn2)c(OC)cc1N1CCC(N2C[C@H]3C[C@@H]2CO3)CC1 [Example 270, N-(2-(4-((1R,4R)-2-oxa-5-azabicyclo[2.2.1]heptane-5-yl)piperidine-1-yl)-4-methoxy-5-((6-((R)-3-methyl-3-phenylisoxazolidine-2-yl)pyrimidine-4-yl)amino)phenyl) acrylamide] | B (50 nM ≤ GI50 < 500 nM) |
| C=CC(=O)Nc1cc(Nc2cc(N3OCC[C@@H]3c3ccc(Cl)c(Cl)c3)ncn2)c(OC)cc1N1CCN(C)CC1 [compound 670, N-(5-((6-((R)-3-(3,4-dichlorophenyl)isoxazolidine-2-yl)pyrimidine-4-yl)amino)-4-methoxy-2-(4-methylpiperazine-1-yl)phenyl)acrylamide] | A (GI50 < 50 nM) |
| C=CC(=O)Nc1cc(Nc2cc(N3OCC[C@@H]3c3cccc(C(F)(F)F)c3)ncn2)c(OC)cc1N1CCN(C)CC1 [compound 450, N-(4-methoxy-2-(4-methylpiperazine-1-yl)-5-((6-((R)-3-(3-(trifluoromethyl)phenyl)isoxazolidine-2-yl)pyrimidine-4-yl)amino)phenyl)acrylamide] | A (GI50 < 50 nM) |
| C=CC(=O)Nc1cc(Nc2cc(N3OCC[C@@H]3c3cccc(F)c3)ncn2)c(OC)cc1N1CC[C@@H](N2CCOCC2)C1 [compound 323, N-(5-((6-((R)-3-(3-fluorophenyl)isoxazolidine-2-yl)pyrimidine-4-yl)amino)-4-methoxy-2-((R)-3-morpholinopyrolidine-1-yl)phenyl) acrylamide] | A (GI50 < 50 nM) |
| C=CC(=O)Nc1cc(Nc2cc(N3OCC[C@@H]3c3cc(F)ccc3F)ncn2)c(OC)cc1N1CCC(N2CC3CCC(C2)N3C2CC2)CC1 [Example 134, N-(2-(4-(8-cyclopropyl-3,8-diazabicyclo[3.2.1]octan-3-yl)piperidine-1-yl)-5-((6-((R)-3-(2,5-difluorophenyl)isoxazolidine-2-yl)pyrimidine-4-yl)amino)-4-methoxyphenyl) acrylamide] | A (GI50 < 50 nM) |
| C=CC(=O)Nc1cc(Nc2cc(N3OCC[C@@H]3c3cccc(F)c3)ncn2)c(OC)cc1N1C[C@H]2C[C@@H]1CO2 [compound 833, N-(2-((1R,4R)-2-oxa-5-azabicyclo[2.2.1]heptane-5-yl)-5-((6-((R)-3-(3-fluorophenyl)isoxazolidine-2-yl)pyrimidine-4-yl)amino)-4-methoxyphenyl) acrylamide] | A (GI50 < 50 nM) |
